Assays:
rhesus monkeys [1] = experiment: i.v. self-administration under progressive-ratio (PR) schedule; assay type: in vivo, rhesus monkey; conditions: dose at which self-administration was highest; n=4 monkeys; FIG. 5
Source text: The abuse potential of novel compounds can be determined by use of i.v. self-administration procedures, in which a compound is available to a subject previously trained to press a lever to obtain a known drug of abuse. Our standard procedure is to use a progressive-ratio (PR) schedule, in which an increasing number of responses are required to obtain an injection. The last response requirement completed is referred to as a “break point” (BP) and represents the maximum amount of “work” a subject will perform to obtain the drug or compound.
In the present example, eight rhesus monkeys (4 females, 4 males) were trained to respond under a schedule of i.v. midazolam (a conventional benzodiazepine) injection at 0.03 mg/kg/injection. Once self-administration had been acquired (>20 injections/daily 2-hour sessions), monkeys were trained under the PR schedule as described by Shinday et al. (2013). Daily experimental sessions consisted of five components, each made up of four trials (i.e., 20 trials total). […]
In order to directly compare lorazepam and TPA023B self-administration, we here analyzed BP values at the doses that maintained the highest level of mean injections/session and compared these BP values with those obtained after vehicle tests.

rhesus monkeys [2] = conditions: visual recognition memory and spatial working memory; cited from earlier work
[3] = target: α3 subunit-containing GABAA receptors (Homo sapiens, UniProt P18507+P34903); parameters: key: act as partial positive modulators for particular subtype combinations; none: zero efficacy (i.e., antagonism) at other subtypes; conditions: cited from earlier work
[4] = parameters: key to Pharmacokinetics: “poor” - low bioavailability and/or short half-life; “good” - potent with long half-life; conditions: in vivo; cited from earlier work
[5] = target: α2 subunit-containing GABAA receptors (Homo sapiens, UniProt P18507+P47869); parameters: key: act as partial positive modulators for particular subtype combinations; none: zero efficacy (i.e., antagonism) at other subtypes; conditions: cited from earlier work
[6] = target: α1 subunit-containing GABAA receptors (Homo sapiens, UniProt P14867+P18507); parameters: key to Subtype α1: act as partial positive modulators for particular subtype combinations; none: zero efficacy (i.e., antagonism) at other subtypes; conditions: cited from earlier work
[7] = target: α5 subunit-containing GABAA receptors (Homo sapiens, UniProt P18507+P31644); parameters: key to Subtype α5: act as partial positive modulators for particular subtype combinations; none: zero efficacy (i.e., antagonism) at other subtypes; conditions: cited from earlier work
[8] = test system: patients with Generalized Anxiety Disorder; conditions: cited from earlier work
Sprague-Dawley rats = experiment: Precipitated withdrawal/acute dependence: responding 60 min after diazepam bolus; assay type: in vivo, rat; conditions: ligand 3.0 mg/kg; FIG. 12B; N=5
Procedure: Acute dependence can occur after single exposures to the benzodiazepine chlordiazepoxide, but not to an α2/3GABAA selective ligand (Fischer et al. 2013, Psychopharmacology 227: 347-54). Here, the extent to which TPA023B can precipitate withdrawal in rats following a single, large bolus dose of diazepam was studied. […] Once rates of responding were stable, doses of diazepam, the non-selective benzodiazepine antagonist flumazenil, and TPA023B were administered prior to the session.

[9] = rhesus monkey, cited from earlier work
GABAA receptor subtypes = conditions: cited from earlier work
rats = experiment: Blockade of diazepam suppression of responding (30 min pretreatment); assay type: in vivo, rat; conditions: ligand 3.0 mg/kg; diazepam 30 min pretreatment; FIG. 12A; N=5
Procedure: This profile is very similar to that of TPA023B despite the structural differences. […] For both compounds, we chose 3.0 mg/kg, i.p., in rats based on published literature or pilot studies in our laboratories.
FIGS. 12A and 12B illustrate the results of acute dependency testing using these compounds.

Sequence of α1 subunit-containing GABAA receptors (P14867 28-456): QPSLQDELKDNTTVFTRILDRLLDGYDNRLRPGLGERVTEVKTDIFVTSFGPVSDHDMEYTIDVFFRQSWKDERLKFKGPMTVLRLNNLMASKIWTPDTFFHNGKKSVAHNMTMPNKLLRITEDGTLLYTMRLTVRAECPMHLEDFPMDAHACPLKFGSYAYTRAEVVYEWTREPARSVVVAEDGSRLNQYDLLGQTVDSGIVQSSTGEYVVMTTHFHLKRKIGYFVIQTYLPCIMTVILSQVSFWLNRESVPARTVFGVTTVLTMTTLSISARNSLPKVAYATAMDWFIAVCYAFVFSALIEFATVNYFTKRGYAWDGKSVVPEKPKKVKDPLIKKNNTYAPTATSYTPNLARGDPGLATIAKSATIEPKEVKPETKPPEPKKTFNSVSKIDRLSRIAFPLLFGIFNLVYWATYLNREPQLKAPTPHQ
Sequence of α1 subunit-containing GABAA receptors (P18507 40-475): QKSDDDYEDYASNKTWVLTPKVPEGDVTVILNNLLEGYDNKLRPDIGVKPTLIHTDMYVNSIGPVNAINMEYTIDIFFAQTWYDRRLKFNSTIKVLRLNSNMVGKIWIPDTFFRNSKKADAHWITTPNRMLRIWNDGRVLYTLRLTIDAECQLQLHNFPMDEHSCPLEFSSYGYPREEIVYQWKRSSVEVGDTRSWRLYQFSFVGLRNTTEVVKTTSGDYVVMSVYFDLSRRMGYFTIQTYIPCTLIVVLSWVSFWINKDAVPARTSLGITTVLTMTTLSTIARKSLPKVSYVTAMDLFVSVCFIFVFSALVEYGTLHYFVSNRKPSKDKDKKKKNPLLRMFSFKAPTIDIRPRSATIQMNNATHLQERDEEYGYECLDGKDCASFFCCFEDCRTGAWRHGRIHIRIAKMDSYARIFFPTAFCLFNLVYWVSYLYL
Sequence of α1 subunit-containing GABAA receptors (P28472 26-473 partner): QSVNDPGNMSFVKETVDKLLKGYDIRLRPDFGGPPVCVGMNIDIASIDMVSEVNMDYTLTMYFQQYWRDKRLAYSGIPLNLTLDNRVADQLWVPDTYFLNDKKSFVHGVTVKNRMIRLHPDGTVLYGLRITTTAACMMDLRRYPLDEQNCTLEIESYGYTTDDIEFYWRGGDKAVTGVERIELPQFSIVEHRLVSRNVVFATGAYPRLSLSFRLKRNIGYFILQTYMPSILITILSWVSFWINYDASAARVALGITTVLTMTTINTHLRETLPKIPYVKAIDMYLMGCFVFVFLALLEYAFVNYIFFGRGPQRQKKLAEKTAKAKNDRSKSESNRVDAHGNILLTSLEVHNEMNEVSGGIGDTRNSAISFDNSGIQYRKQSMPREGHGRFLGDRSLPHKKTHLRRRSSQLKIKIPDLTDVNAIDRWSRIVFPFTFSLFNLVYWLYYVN
Sequence of α2 subunit-containing GABAA receptors (P47869 29-451): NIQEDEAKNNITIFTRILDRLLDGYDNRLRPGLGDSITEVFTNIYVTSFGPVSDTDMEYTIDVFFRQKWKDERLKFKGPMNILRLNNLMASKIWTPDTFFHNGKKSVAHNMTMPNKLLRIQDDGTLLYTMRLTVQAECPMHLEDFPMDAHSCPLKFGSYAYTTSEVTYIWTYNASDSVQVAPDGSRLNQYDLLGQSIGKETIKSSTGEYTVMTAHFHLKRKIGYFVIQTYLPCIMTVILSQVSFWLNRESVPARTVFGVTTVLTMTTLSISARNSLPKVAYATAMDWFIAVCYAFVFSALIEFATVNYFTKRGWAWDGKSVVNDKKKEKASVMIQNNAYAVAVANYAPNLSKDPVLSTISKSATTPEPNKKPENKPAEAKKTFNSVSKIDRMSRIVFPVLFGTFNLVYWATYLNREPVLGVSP
Sequence of α2 subunit-containing GABAA receptors (P18507 40-475): as the sequence (P18507 40-475) above
Sequence of α2 subunit-containing GABAA receptors (P28472 26-473 partner): as the sequence (P28472 26-473 partner) above
Sequence of α3 subunit-containing GABAA receptors (P34903 29-492): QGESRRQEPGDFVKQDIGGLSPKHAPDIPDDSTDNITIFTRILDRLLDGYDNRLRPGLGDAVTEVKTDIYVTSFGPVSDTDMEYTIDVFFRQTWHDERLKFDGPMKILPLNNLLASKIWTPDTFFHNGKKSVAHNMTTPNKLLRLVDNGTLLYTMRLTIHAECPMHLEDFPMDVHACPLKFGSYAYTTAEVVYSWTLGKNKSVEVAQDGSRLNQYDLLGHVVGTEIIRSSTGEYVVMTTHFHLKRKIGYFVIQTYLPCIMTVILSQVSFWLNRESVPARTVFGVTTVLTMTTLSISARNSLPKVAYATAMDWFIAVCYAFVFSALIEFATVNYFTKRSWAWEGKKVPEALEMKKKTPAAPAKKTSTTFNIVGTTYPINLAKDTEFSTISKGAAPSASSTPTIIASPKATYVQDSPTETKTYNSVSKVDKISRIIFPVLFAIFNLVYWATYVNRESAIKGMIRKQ
Sequence of α3 subunit-containing GABAA receptors (P18507 40-475): as the sequence (P18507 40-475) above
Sequence of α3 subunit-containing GABAA receptors (P28472 26-473 partner): as the sequence (P28472 26-473 partner) above
Sequence of α5 subunit-containing GABAA receptors (P31644 32-462): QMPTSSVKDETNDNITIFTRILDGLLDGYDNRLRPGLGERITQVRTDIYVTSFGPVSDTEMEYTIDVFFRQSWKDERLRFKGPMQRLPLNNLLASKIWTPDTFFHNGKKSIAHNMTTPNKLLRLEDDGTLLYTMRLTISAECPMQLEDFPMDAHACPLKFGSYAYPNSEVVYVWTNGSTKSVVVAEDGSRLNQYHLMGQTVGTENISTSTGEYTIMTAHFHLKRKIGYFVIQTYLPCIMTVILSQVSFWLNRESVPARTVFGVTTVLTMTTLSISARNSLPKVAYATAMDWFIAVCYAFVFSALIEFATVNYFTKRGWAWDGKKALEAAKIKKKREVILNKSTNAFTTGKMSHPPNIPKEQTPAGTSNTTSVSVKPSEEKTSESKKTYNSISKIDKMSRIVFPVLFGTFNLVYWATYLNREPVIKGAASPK
Sequence of α5 subunit-containing GABAA receptors (P18507 40-475): as the sequence (P18507 40-475) above
Sequence of α5 subunit-containing GABAA receptors (P28472 26-473 partner): as the sequence (P28472 26-473 partner) above

O=C1Nc2ccc(Cl)cc2C(c2ccccc2Cl)=NC1O (centres unmarked) [lorazepam, reference compound]
median break point (BP), highest response requirement (rhesus monkeys [1]): 320

Cc1nnc2n1-c1ccc(Cl)cc1C(c1ccccc1Cl)=NC2 [triazolam, reference compound]
accuracy in DMTS and SOSS tasks (rhesus monkeys [2]): significantly reduced accuracy

CCn1ncnc1COc1nn2c(-c3ccccc3F)nnc2cc1C(C)(C)C [TPA023]
Subtype α3 [3]: partial | Pharmacokinetics [4]: good | Subtype α2 [5]: partial | Subtype α1 [6]: none | efficacy at α1GABAA subtype [6]: no efficacy | Subtype α5 [7]: none | adverse effects leading to halt in Phase II ([8]; human, in vivo): cataract development | anxiolysis in patients with Generalized Anxiety Disorder ([8]; post hoc analyses, three clinical trials): significant anxiolysis

CC(C)(O)c1ccn2c(-c3ccc(F)c(-c4cccnc4)c3)cnc2n1 [MRK-623]
Subtype α3 [3]: partial | rates of responding after 60-min pretreatment of diazepam (acute dependence) (Sprague-Dawley rats): neither L-838,417 nor MRK-623 altered rates of responding | Pharmacokinetics [4]: poor | Subtype α2 [5]: partial | Subtype α1 [6]: none | Subtype α5 [7]: none | bioavailability (in words) ([9]; in vivo): fair | half-life [9]: 30 min | functional/subtype selectivity (GABAA receptor subtypes): α2/3GABAA subtype selective | ability of diazepam to suppress rates of responding (rats): blocked
